Literature values, collected in patent US12350336B2, “Photo-activatable compound, its preparation and therapeutic use” (City University of Hong Kong, priority 2021, dated 2025).

Conditions: calibration standard value

Compound: CN(C)c1ccc2nc3ccc(=[N+](C)C)cc-3sc2c1 [MB, Methylene blue]
- ΦΔ (1O2 quantum yield) of calibration standard: 0.52
